Assays:
2008 = experiment: MTT cytotoxicity, 2D culture, ovarian carcinoma; type: cell-based, human; details: 2008, 72 h, MTT test
Procedure: (§1) The Ag(I) complexes 3–5 and the corresponding uncoordinated ligands 1 and 2 were evaluated for their cytotoxic activity against various human cancer cell lines representative of different solid tumors. In particular, the in-house cancer cell panel contained examples of human colon (HCT-15), pancreatic (PSN-1), cervical (A431), breast (MDA-MB-231) and ovarian (2008) carcinoma as well as of SCLC (U1285). For comparison purposes, the cytotoxicity of the reference metal-based chemotherapeutic drug cisplatin was assessed under the same experimental conditions.
(§2) Ag(I) complexes and the corresponding uncoordinated ligands were dissolved in DMSO just before the experiment, and a calculated amount of drug solution was added to the cell growth medium to a final solvent concentration of 0.5%, which had no detectable effects on cell viability. Cisplatin was dissolved in 0.9% sodium chloride solution. MTT (3-(4,5-dimethylthiazol-2-yl)-2,5-diphenyltetrazolium bromide) and cisplatin were obtained from Sigma Chemical Co, St. Louis, MO, USA.
(§3) Human SCLC (U1285), breast (MDA-MB-231), colon (HCT-15), and pancreatic (PSN-1) carcinoma cell lines were obtained by American Type Culture Collection (ATCC, Rockville, MD, USA). A431 are human cervical carcinoma cells kindly provided by Professor F. Zunino (Division of Experimental Oncology B, Istituto Nazionale dei Tumori, Milan, Italy). The 2008 cells and the cisplatin-resistant variant, C13* cells, are human ovarian adenocarcinoma cell lines that were kindly provided by Professor G. Marverti (Department of Biomedical Science of Modena University, Modena, Italy). Cell lines were maintained in the logarithmic phase at 37 °C in a 5% carbon dioxide atmosphere using the following culture media containing 10% fetal calf serum (EuroClone, Milan, Italy), antibiotics (50 units/mL penicillin and 50 μg/mL streptomycin) and 2 mM l-glutamine: (i) RPMI-1640 medium (EuroClone, Milan, Italy) for HCT-15, A431, PSN-1, U1285, 2008 and C13* cells; (ii) DMEM (EuroClone, Milan, Italy) for MDA-MB-231 cells.
(§4) The growth inhibitory effect toward tumor cells was evaluated by means of MTT assay. Briefly, 3–8 × 10^3 cells/well, dependent upon the growth characteristics of the cell line, were seeded in 96-well microplates in growth medium (100 μL). After 24 h, the medium was removed and replaced with a fresh one containing the compound to be studied at the appropriate concentration. Triplicate cultures were established for each treatment. After 72 h, each well was treated with 10 μL of a 5 mg/mL MTT saline solution, and following 5 h of incubation, 100 μL of a sodium dodecyl sulfate (SDS) solution in HCl 0.01 M was added. After overnight incubation, cell growth inhibition was detected by measuring the absorbance of each well at 570 nm using a Bio-Rad 680 microplate reader. Mean absorbance for each drug dose was expressed as a percentage of the control untreated well absorbance and plotted vs. drug concentration. IC50 values, the drug concentrations that reduce the mean absorbance at 570 nm to 50% of those in the untreated control wells, were calculated by the four-parameter logistic (4-PL) model. Evaluation was based on means from at least four independent experiments.

U1285 = experiment: MTT cytotoxicity, 2D culture, SCLC; type: cell-based, human; details: U1285, 72 h, MTT test
Procedure: as §1, §2, §3, §4

MDA-MB-231 = experiment: MTT cytotoxicity, 2D culture, breast carcinoma; type: cell-based, human; details: MDA-MB-231, 72 h, MTT test
Procedure: as §1, §2, §3, §4

HEK293 cells = experiment: MTT cytotoxicity, non-cancerous cells; type: cell-based; details: Homo sapiens, 72 h, MTT test
Procedure: One of the main drawbacks of chemotherapeutic drugs is the possible toxic effect toward non-cancerous cells, and we measured the cytotoxicity of Ag(I) complexes against non-cancerous HEK293 cells (see Table 1). For all Ag(I) complexes, calculated IC50 values were higher than those obtained on average against tumor cells, thus indicating for this class of metal complexes a slightly preferential cytotoxicity against human cancer cells.
as §4

C13* cells = experiment: MTT cytotoxicity, cisplatin-resistant ovarian adenocarcinoma; type: cell-based, human; details: 72 h, MTT test
Text: The antiproliferative activity of the Ag(I) complexes 3–5 was also investigated in an additional cell line selected for its resistance to cisplatin, the human ovarian adenocarcinoma C13* cells. These cells were suitably selected after a cisplatin chronic treatment and are characterized by several mechanisms accounting for their resistance to cisplatin; these include (i) a reduced intracellular drug accumulation, (ii) high cellular levels of glutathione and metallothioneins, (iii) the enhanced repair of platinum-DNA adducts, and (iv) an overexpression of the Trx system.
Cytotoxicity was assessed after 72 h of drug treatment by MTT test, and the IC50 and RF values (RF = resistance factor, defined as the ratio of the IC50 of resistant cells over the IC50 of sensitive ones) are reported in Table 1.
as §3, §4

A431 = experiment: MTT cytotoxicity, 2D culture, cervical carcinoma; type: cell-based, human; details: A431, 72 h, MTT test
Procedure: as §1, §2, §3, §4

PSN-1 = experiment: MTT cytotoxicity, 2D culture, pancreatic carcinoma; type: cell-based; details: Homo sapiens, PSN1; PSN-1, 72 h, MTT test
Procedure: as §1, §2, §3
The growth inhibitory effect toward tumor cells was evaluated by means of MTT assay. Briefly, 3–8 × 10^3 cells/well, dependent upon the growth characteristics of the cell line, were seeded in 96-well microplates in growth medium (100 μL). After 24 h, the medium was removed and replaced with a fresh one containing the compound to be studied at the appropriate concentration. Triplicate cultures were established for each treatment. […] After overnight incubation, cell growth inhibition was detected by measuring the absorbance of each well at 570 nm using a Bio-Rad 680 microplate reader. Mean absorbance for each drug dose was expressed as a percentage of the control untreated well absorbance and plotted vs. drug concentration. […]

HCT-15 = experiment: MTT cytotoxicity, 2D culture, colon carcinoma; type: cell-based, human; details: HCT-15, 72 h, MTT test
Procedure: as §1, §2, §3, §4

TrxR = molecular target: T1, TrxR (Homo sapiens, UniProt Q16881); experiment: TrxR activity in treated U1285 cells; type: cell-based; details: 2 µM, 24 h
T1 construct: hampering TrxR activity when tested in U1285 cell cultures; endogenous in cells; host or cells: U1285 human small-cell lung carcinoma cells
T1 sequence (Q16881 151-649 limits assumed): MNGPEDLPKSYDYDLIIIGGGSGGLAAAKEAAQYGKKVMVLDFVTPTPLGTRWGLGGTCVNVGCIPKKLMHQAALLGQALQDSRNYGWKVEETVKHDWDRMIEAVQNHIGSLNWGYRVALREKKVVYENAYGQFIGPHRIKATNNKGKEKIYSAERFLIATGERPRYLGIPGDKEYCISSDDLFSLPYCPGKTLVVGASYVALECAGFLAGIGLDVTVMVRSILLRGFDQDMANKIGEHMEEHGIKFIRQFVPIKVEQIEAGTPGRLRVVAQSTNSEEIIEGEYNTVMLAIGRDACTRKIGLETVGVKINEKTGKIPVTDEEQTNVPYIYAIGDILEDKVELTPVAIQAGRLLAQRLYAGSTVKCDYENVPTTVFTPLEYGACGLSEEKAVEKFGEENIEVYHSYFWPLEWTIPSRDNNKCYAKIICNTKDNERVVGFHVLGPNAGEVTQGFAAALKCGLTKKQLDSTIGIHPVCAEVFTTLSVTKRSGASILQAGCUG
Procedure: On the other hand, Ag(I) compounds 4 and 5 were as effective or even better than auranofin in hampering TrxR activity when tested in U1285 cell cultures.
At the end of incubation time, cells were collected, washed with ice-cold PBS and centrifuged at […]. Each sample was then lysed with RIPA buffer modified as follows: 150 mM NaCl, 50 mM Tris–HCl, 1% Triton X-100, 1% SDS, 1% DOC, 1 mM NaF, 1 mM EDTA, and immediately before use, an anti-protease cocktail (Roche, Basel, Switzerland) containing PMSF was added. Samples were tested for TrxR activity as above described.
Figure 2 TrxR inhibition. (A) TrxR1 activity was assayed by measuring NADPH-dependent reduction of DTNB at 412 nm as described in the Experimental Section. (a) 50% inhibition concentration (IC50), Error bars indicate S.D. (B) U1285 cells were incubated for 24 h with the tested compounds (2 µM). Subsequently, cells were washed twice with PBS and lysed. TrxR activity was tested by measuring NADPH-dependent reduction of DTNB at 412 nm. Error bars indicate SD. * p < 0.05; ** p < 0.01.

[1] = tested on: U1285 cancer cell spheroids; experiment: 3D spheroid cytotoxicity, acid phosphatase (APH) assay; type: cell-based, human; details: 72 h
Procedure: The in vitro antitumor activity of the newly developed Ag(I) derivatives was also assayed in 3D cell culture models of SCLC cells. Even if the 2D cell cultures are the most employed assays for in vitro screening due to the low cost, simplicity and reliability, two-dimensional methods are unable to reproduce the properties of in vivo solid tumors. In contrast, 3D cell cultures are much more efficient in closely mimicking the heterogeneity and complexity of the tumor mass and therefore are more predictive for in vivo results than conventional 2D cell cultures. On these bases, we tested the activity of the Ag(I) complexes on spheroids obtained from U1285 cells, which were proven to be highly sensitive to their in vitro antitumor activity. SCLC spheroids were treated with the investigated compounds for 72 h, and cell viability was assessed by means of the acid phosphatase (APH) assay.
Spheroids from U1285 cells (3 × 10^3 cells/well) were treated for 72 h with increasing concentrations of tested compounds. The growth inhibitory effect was evaluated by means of the APH assay. IC50 values were calculated from the dose–survival curves by the four-parameter logistic model (p < 0.05). S.D. = standard deviation.
Spheroid cultures were obtained by seeding 2.5 × 10^3 U1285 cancer cells/well in a round-bottom non-treated tissue culture 96-well plate (Greiner Bio-one, Kremsmünster, Austria) in phenol red free RPMI-1640 medium (Sigma Chemical Co., St. Louis, MO, USA) containing 10% fetal calf serum and supplemented with 20% methyl cellulose stock solution.
An APH modified assay was used for determining cell viability in 3D spheroids, as previously described. […] The inhibition of the cell growth induced by the tested complexes was detected by measuring the absorbance of each well at 405 nm, using a Bio-Rad 680 microplate reader. Mean absorbance for each drug dose was expressed as a percentage of the control untreated well absorbance (T/C) and plotted vs. drug concentration. […]

Row | SMILES | IC50 (2008; Homo sapiens) | IC50 (U1285; Homo sapiens) | IC50 (MDA-MB-231; Homo sapiens) | IC50 (HEK293 cells) | IC50 (C13* cells; Homo sapiens) | IC50 (A431; Homo sapiens, A-431) | IC50 (PSN-1) | IC50 (HCT-15; Homo sapiens) | decrease of TrxR enzyme activity (TrxR) | IC50 [1] | IC50 2008 | IC50 (U1285) | IC50 (MDA-MB-231) | IC50 (C13* cells) | IC50 (A431) | IC50 (HCT-15) | IC50 ([1]; Homo sapiens)
1 | c1ccc(P(c2ccccc2)c2ccccc2)cc1 [PPh3, triphenylphosphine, reference compound] | > 50 µM | > 50 µM | > 50 µM | > 100 µM | > 50 µM | 47.5 ± 1.1 µM | > 50 µM | > 50 µM |  |  |  |  |  |  |  |  | 
2 | C1N2CN3CN1CP(C2)C3 [PTA, 1,3,5-triaza-7-phosphaadamantane, reference compound] | > 100 µM | > 100 µM | > 100 µM | > 100 µM | > 100 µM | > 100 µM | > 100 µM | > 100 µM |  |  |  |  |  |  |  |  | 
3 | CC(=O)OC[C@H]1O[C@@H]([S-])[C@H](OC(C)=O)[C@@H](OC(C)=O)[C@@H]1OC(C)=O.CCP(CC)CC.[Au+] [auranofin, reference compound] |  |  |  |  |  |  |  |  | 62% |  |  |  |  |  |  |  | 
4 | N.N.[Cl][Pt][Cl] [cisplatin, reference compound] |  |  |  |  |  |  |  |  |  | 65.4 ± 1.4 µM | 2.2 ± 1 µM | 9.6 ± 1.2 µM | 30.5 ± 2.6 µM | 30.5 ± 2.6 µM | 2.1 ± 0.9 µM | 15.3 ± 2.6 µM | 
5 | COC(=O)C(n1cccn1)n1cccn1 [ligand 1, [HC(pz)2COOCH3]] | > 50 µM | > 50 µM | > 50 µM | > 50 µM | > 50 µM | > 50 µM | > 50 µM | > 50 µM |  |  |  |  |  |  |  |  | > 100 µM
6 | COC(=O)C(n1nc(C)cc1C)n1nc(C)cc1C [ligand 2, [HC(pz^Me2)2COOCH3]] | > 50 µM | > 50 µM | > 50 µM | > 50 µM | > 50 µM | > 50 µM | > 50 µM | > 50 µM |  |  |  |  |  |  |  |  | > 100 µM

— PMC9960633, “Novel Silver Complexes Based on Phosphanes and Ester Derivatives of Bis(pyrazol-1-yl)acetate Ligands Targeting TrxR: New Promising Chemotherapeutic Tools Relevant to SCLC Management” (International Journal of Molecular Sciences, 2023)
